These results are taken from US20250059164A1, “IRAK DEGRADERS AND USES THEREOF” (Kymera Therapeutics, Inc., priority 2023, published 2025).

The target in the first data set is T1, IRAK4 (Homo sapiens, UniProt Q9NWZ3).
T1 construct: endogenous in cells; host or cells: OCI-LY10
T1 sequence (Q9NWZ3 1-460): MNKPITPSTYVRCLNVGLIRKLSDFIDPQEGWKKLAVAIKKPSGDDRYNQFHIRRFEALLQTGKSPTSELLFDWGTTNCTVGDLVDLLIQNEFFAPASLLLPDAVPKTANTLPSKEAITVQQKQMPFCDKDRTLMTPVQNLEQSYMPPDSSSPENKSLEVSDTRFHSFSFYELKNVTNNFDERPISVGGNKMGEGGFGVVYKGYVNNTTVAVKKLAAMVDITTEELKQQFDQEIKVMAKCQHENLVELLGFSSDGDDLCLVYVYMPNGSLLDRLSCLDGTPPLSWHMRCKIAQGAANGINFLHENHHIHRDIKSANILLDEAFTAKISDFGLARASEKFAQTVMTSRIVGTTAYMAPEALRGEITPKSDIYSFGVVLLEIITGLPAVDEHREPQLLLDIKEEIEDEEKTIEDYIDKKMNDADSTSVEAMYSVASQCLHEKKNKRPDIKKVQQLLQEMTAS
Description: IRAK4 MSD degradation in OCI-LY10. The conditions noted are these: OCI-LY10 cells, 24 hrs, Meso Scale Discovery. It counts as cell-based. In a few lines:
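OCI-LY10 cells treated 4 to 24 hours at 37° C. with 8-dose 1:3 series, top 1 to 10 μM. IRAK4 in lysates quantified by MSD sandwich immunoassay (mouse capture, rabbit detection, SULFO-TAG anti-rabbit). DC50 from three-parameter logistic fit.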
With `Cn1c(=O)n(C2CCC(=O)NC2=O)c2cccc(N3CC(OC[C@H]4CC[C@H](n5cc(NC(=O)c6cnn7ccc(N8C[C@H]9C[C@@H]8CO9)nc67)c(C(F)F)n5)CC4)C3)c21` (stereo partly shown) [I-256], the DC50 was above 0.2 µM.
Turning to `COc1cc2nn([C@H]3CC[C@H](CN4CCC5(CCN(c6cccc7c6n(C)c(=O)n7C6CCC(=O)NC6=O)CC5)C(F)(F)C4)CC3)cc2cc1NC(=O)c1cncc(C)c1` (stereo partly shown) [I-257], the DC50 is below 0.01 µM.
For `COc1cc2nn([C@H]3CC[C@H](CN4CCC5(CCN(c6cccc7c6n(C)c(=O)n7C6CCC(=O)NC6=O)CC5)C(F)(F)C4)CC3)cc2cc1NC(=O)c1cncc(C#N)c1` (stereo partly shown) [I-259], the DC50 was below 0.01 µM.
`COc1cc2nn([C@H]3CC[C@H](CN4CCC5(CN(c6c(F)ccc7c6n(C)c(=O)n7C6CCC(=O)NC6=O)C5)C(F)(F)C4)CC3)cc2cc1NC(=O)c1cncc(C#N)c1` (stereo partly shown) [I-260] gave a DC50 below 0.01 µM.
For `Cn1c(=O)n(C2CCC(=O)NC2=O)c2cccc([C@@H]3CCN(C[C@H]4CC[C@H](c5cn6cc(NC(=O)c7cccc(C(F)(F)F)n7)ccc6n5)CC4)C[C@H]3F)c21` (stereo partly shown) [I-262], the DC50 was below 0.01 µM.
The molecule `Cn1c(=O)n(C2CCC(=O)NC2=O)c2cccc([C@@H]3CCN(C[C@H]4CC[C@H](c5cn6cc(NC(=O)c7cccc(C(F)(F)F)n7)c(C(C)(C)O)cc6n5)CC4)C[C@H]3F)c21` (stereo partly shown) [I-268] registered a DC50 below 0.01 µM.
As to `Cn1c(=O)n(C2CCC(=O)NC2=O)c2cccc(N3CC(COC[C@H]4CC[C@H](n5cc6cc(NC(=O)c7cccc(C(F)(F)F)c7)ncc6n5)CC4)C3)c21` (stereo partly shown) [I-269], the DC50 was above 0.2 µM.
The same measure, in the same setting: for `COc1cc2nn([C@H]3CC[C@H](COCC4CN(c5cccc6c5n(C)c(=O)n6C5CCC(=O)NC5=O)C4)CC3)cc2cc1NC(=O)c1cncc(C#N)c1` (stereo partly shown) [I-270] the value was 0.01 to 0.1 µM; for `COc1cc2nn([C@H]3CC[C@H](CN4CC[C@@H](c5cccc6c5n(C)c(=O)n6C5CCC(=O)NC5=O)[C@H](F)C4)CC3)cc2cc1NC(=O)c1cncc(C(F)F)c1` (stereo partly shown) [I-271], below 0.01 µM; for `Cc1cc2nn([C@H]3CC[C@H](CN4CC[C@@H](c5cccc6c5n(C)c(=O)n6C5CCC(=O)NC5=O)[C@H](F)C4)CC3)cc2cc1NC(=O)c1cncc(C#N)c1` (stereo partly shown) [I-272], above 0.2 µM.
Still for that read-out and setting: for `Cn1c(=O)n(C2CCC(=O)NC2=O)c2cccc([C@@H]3CCN(C[C@H]4CC[C@H](c5cn6cc(NC(=O)c7cccc(C(F)(F)F)c7)ccc6n5)CC4)C[C@H]3F)c21` (stereo partly shown) [I-274] the value was below 0.01 µM; for `CC(C)Oc1cc2nn([C@H]3CC[C@H](CN4CC[C@@H](c5cccc6c5n(C)c(=O)n6C5CCC(=O)NC5=O)[C@H](F)C4)CC3)cc2cc1NC(=O)c1cncc(C#N)c1` (stereo partly shown) [I-275], below 0.01 µM.
`Cn1c(=O)n(C2CCC(=O)NC2=O)c2cccc([C@@H]3CCN(C[C@H]4CC[C@H](c5cn6cc(NC(=O)c7cccc(C(F)(F)F)c7)c(C(C)(C)O)cc6n5)CC4)C[C@H]3F)c21` (stereo partly shown) [I-276]: the 50% degradation concentration (DC50) was below 0.01 µM.
Regarding `COc1cc2nc([C@H]3CC[C@H](CN4CC[C@@H](c5cccc6c5n(C)c(=O)n6C5CCC(=O)NC5=O)[C@H](F)C4)CC3)cn2cc1NC(=O)c1cccc(C(F)(F)F)c1` (stereo partly shown) [I-278], the 50% degradation concentration (DC50) was below 0.01 µM.
Take `COc1cc2nn([C@H]3CC[C@H](CN4CC[C@@H](c5cccc6c5n(C)c(=O)n6C5CCC(=O)NC5=O)[C@H](F)C4)CC3)cc2cc1C(=O)Nc1cncc(C(F)(F)F)c1` (stereo partly shown) [I-283]: the DC50 is below 0.01 µM.
On to `COc1cc2nc([C@H]3CC[C@H](CN4CC[C@@H](c5cccc6c5n(C)c(=O)n6C5CCC(=O)NC5=O)[C@H](F)C4)CC3)oc2cc1NC(=O)c1cncc(C(F)(F)F)n1` (stereo partly shown) [I-284], for which the DC50 fell in the range of 0.01 to 0.1 µM.
As for `Cc1cc2nn([C@H]3CC[C@H](CN4CC[C@@H](c5cccc6c5n(C)c(=O)n6C5CCC(=O)NC5=O)[C@H](F)C4)CC3)cc2cc1NC(=O)c1cncc(C(F)(F)F)n1` (stereo partly shown) [I-286], the DC50 was below 0.01 µM.

Test system in another data set: not listed separately
Briefly: Rodent pharmacokinetics (rat PK). It counts as in vivo. The conditions noted are these: po, dosed intravenously or orally by gavage, plasma, read-out: F % (bioavailability). The essentials:
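Rats were dosed IV or by oral gavage, with jugular blood taken predose and at 5 min (IV only), 15, 30 min and 1, 2, 4, 8, 24 h. Plasma was separated by centrifugation at 4 °C. Oral bioavailability (F %) is coded A (≥5%) or B (≤5%).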
In the case of `Cn1c(=O)n(C2CCC(=O)NC2=O)c2cccc(N3CC(OC[C@H]4CC[C@H](n5cc(NC(=O)c6cnn7ccc(N8C[C@H]9C[C@@H]8CO9)nc67)c(C(F)F)n5)CC4)C3)c21` (stereo partly shown) [I-256], the bioavailability was at most 5%.
For `COc1cc2nn([C@H]3CC[C@H](CN4CCC5(CCN(c6cccc7c6n(C)c(=O)n7C6CCC(=O)NC6=O)CC5)C(F)(F)C4)CC3)cc2cc1NC(=O)c1cncc(C)c1` (stereo partly shown) [I-257], the bioavailability was at most 5%.
For the molecule `COc1cc2nn([C@H]3CC[C@H](CN4CCC5(CCN(c6cccc7c6n(C)c(=O)n7C6CCC(=O)NC6=O)CC5)C(F)(F)C4)CC3)cc2cc1NC(=O)c1cncc(C#N)c1` (stereo partly shown) [I-259], the bioavailability was at most 5%.
For the molecule `COc1cc2nn([C@H]3CC[C@H](CN4CCC5(CN(c6c(F)ccc7c6n(C)c(=O)n7C6CCC(=O)NC6=O)C5)C(F)(F)C4)CC3)cc2cc1NC(=O)c1cncc(C#N)c1` (stereo partly shown) [I-260], the bioavailability was at most 5%.
`Cn1c(=O)n(C2CCC(=O)NC2=O)c2cccc([C@@H]3CCN(C[C@H]4CC[C@H](c5cn6cc(NC(=O)c7cccc(C(F)(F)F)n7)ccc6n5)CC4)C[C@H]3F)c21` (stereo partly shown) [I-262]: the bioavailability is at most 5%.
Regarding `Cn1c(=O)n(C2CCC(=O)NC2=O)c2cccc([C@@H]3CCN(C[C@H]4CC[C@H](c5cn6cc(NC(=O)c7cccc(C(F)(F)F)n7)c(C(C)(C)O)cc6n5)CC4)C[C@H]3F)c21` (stereo partly shown) [I-268], the bioavailability is at most 5%.
The same measure, in the same setting: then `Cn1c(=O)n(C2CCC(=O)NC2=O)c2cccc(N3CC(COC[C@H]4CC[C@H](n5cc6cc(NC(=O)c7cccc(C(F)(F)F)c7)ncc6n5)CC4)C3)c21` (stereo partly shown) [I-269], with at most 5%; and `COc1cc2nn([C@H]3CC[C@H](COCC4CN(c5cccc6c5n(C)c(=O)n6C5CCC(=O)NC5=O)C4)CC3)cc2cc1NC(=O)c1cncc(C#N)c1` (stereo partly shown) [I-270], with at most 5%.
On to `COc1cc2nn([C@H]3CC[C@H](CN4CC[C@@H](c5cccc6c5n(C)c(=O)n6C5CCC(=O)NC5=O)[C@H](F)C4)CC3)cc2cc1NC(=O)c1cncc(C(F)F)c1` (stereo partly shown) [I-271], for which the bioavailability was at most 5%.
On the same count and under the same terms, then `Cc1cc2nn([C@H]3CC[C@H](CN4CC[C@@H](c5cccc6c5n(C)c(=O)n6C5CCC(=O)NC5=O)[C@H](F)C4)CC3)cc2cc1NC(=O)c1cncc(C#N)c1` (stereo partly shown) [I-272], with at most 5%.
On the same count and under the same terms, then `Cn1c(=O)n(C2CCC(=O)NC2=O)c2cccc([C@@H]3CCN(C[C@H]4CC[C@H](c5cn6cc(NC(=O)c7cccc(C(F)(F)F)c7)ccc6n5)CC4)C[C@H]3F)c21` (stereo partly shown) [I-274], with at most 5%.
Consider `CC(C)Oc1cc2nn([C@H]3CC[C@H](CN4CC[C@@H](c5cccc6c5n(C)c(=O)n6C5CCC(=O)NC5=O)[C@H](F)C4)CC3)cc2cc1NC(=O)c1cncc(C#N)c1` (stereo partly shown) [I-275], for which the bioavailability was at most 5%.
With `Cn1c(=O)n(C2CCC(=O)NC2=O)c2cccc([C@@H]3CCN(C[C@H]4CC[C@H](c5cn6cc(NC(=O)c7cccc(C(F)(F)F)c7)c(C(C)(C)O)cc6n5)CC4)C[C@H]3F)c21` (stereo partly shown) [I-276], the bioavailability was at most 5%.
Still for that read-out and setting: for `COc1cc2nc([C@H]3CC[C@H](CN4CC[C@@H](c5cccc6c5n(C)c(=O)n6C5CCC(=O)NC5=O)[C@H](F)C4)CC3)cn2cc1NC(=O)c1cccc(C(F)(F)F)c1` (stereo partly shown) [I-278] the value was at most 5%; for `COc1cc2nn([C@H]3CC[C@H](CN4CC[C@@H](c5cccc6c5n(C)c(=O)n6C5CCC(=O)NC5=O)[C@H](F)C4)CC3)cc2cc1C(=O)Nc1cncc(C(F)(F)F)c1` (stereo partly shown) [I-283], at most 5%.
Regarding `COc1cc2nc([C@H]3CC[C@H](CN4CC[C@@H](c5cccc6c5n(C)c(=O)n6C5CCC(=O)NC5=O)[C@H](F)C4)CC3)oc2cc1NC(=O)c1cncc(C(F)(F)F)n1` (stereo partly shown) [I-284], the bioavailability is at most 5%.
Take `Cc1cc2nn([C@H]3CC[C@H](CN4CC[C@@H](c5cccc6c5n(C)c(=O)n6C5CCC(=O)NC5=O)[C@H](F)C4)CC3)cc2cc1NC(=O)c1cncc(C(F)(F)F)n1` (stereo partly shown) [I-286]: the bioavailability is at most 5%.

One may read the DC50 as the concentration at which degradation of the target reaches its halfway point. Low values mean a more potent degrader, high ones a less potent degrader. In general, bioavailability refers to dose-corrected exposure relative to a reference, in per cent.
